Results reported in ChEMBL document CHEMBL5046315, “CRCM5484: A BET-BDII Selective Compound with Differential Anti-leukemic Drug Modulation” (J Med Chem, 2022).
Calls of active or inactive are those of the source. The rule behind the calls is not given here.

Legend:
[1] = molecular target: T1, E3 ubiquitin-protein ligase TRIM33 (Homo sapiens) (UniProt Q9UPN9); assay: Binding affinity to partial length human TRIM33 (D882 to A1087 residues) expressed in bacterial system at 1 uM by BROMOscan method relative to control
T1 sequence (whole entry): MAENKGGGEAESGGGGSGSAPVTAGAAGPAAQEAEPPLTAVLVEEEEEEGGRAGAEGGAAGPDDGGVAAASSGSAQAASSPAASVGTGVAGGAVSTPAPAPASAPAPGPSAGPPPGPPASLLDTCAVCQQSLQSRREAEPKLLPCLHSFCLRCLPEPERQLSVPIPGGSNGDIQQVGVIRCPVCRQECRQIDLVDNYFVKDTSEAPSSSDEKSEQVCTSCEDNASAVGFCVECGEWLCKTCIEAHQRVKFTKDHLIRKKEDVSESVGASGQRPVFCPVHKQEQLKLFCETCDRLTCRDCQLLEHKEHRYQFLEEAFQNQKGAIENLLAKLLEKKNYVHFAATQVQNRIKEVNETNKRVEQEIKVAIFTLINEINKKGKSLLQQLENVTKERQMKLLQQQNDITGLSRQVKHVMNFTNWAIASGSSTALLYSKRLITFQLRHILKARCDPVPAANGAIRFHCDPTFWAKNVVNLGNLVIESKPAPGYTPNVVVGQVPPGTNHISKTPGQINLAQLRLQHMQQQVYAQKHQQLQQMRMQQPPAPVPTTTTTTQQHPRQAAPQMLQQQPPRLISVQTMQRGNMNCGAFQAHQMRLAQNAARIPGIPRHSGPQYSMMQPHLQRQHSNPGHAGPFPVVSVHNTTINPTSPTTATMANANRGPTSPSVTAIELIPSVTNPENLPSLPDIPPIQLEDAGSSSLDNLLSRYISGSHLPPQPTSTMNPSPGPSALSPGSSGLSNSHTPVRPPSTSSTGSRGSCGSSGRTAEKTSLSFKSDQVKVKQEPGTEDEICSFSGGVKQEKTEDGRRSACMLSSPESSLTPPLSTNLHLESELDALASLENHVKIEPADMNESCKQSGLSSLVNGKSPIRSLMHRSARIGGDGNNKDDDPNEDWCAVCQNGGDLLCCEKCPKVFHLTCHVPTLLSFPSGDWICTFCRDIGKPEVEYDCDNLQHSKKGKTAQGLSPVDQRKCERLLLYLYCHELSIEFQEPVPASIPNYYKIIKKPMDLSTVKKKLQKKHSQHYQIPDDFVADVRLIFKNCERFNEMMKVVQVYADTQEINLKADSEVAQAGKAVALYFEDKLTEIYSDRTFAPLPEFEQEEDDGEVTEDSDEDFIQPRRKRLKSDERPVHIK

[2] = molecular target: Chromatin remodeling regulator CECR2 (Homo sapiens) (UniProt Q9BXF3); assay: Binding affinity to partial length human CECR2 (P423 to D543 residues) expressed in bacterial system at 1 uM by BROMOscan method relative to control
CCRF-CEM [3] = assay: Potentiation of AC-4-130-induced antileukemic activity against human CCRF-CEM cells at 4.3 uM in presence of bone-marrow derived stromal cell-conditioned medium; type: functional, cell-based
CCRF-CEM [4] = assay: Potentiation of clofarabine-induced antileukemic activity against human CCRF-CEM cells at 4.3 uM in presence of bone-marrow derived stromal cell-conditioned medium; type: functional, cell-based
CCRF-CEM [5] = assay: Potentiation of GSK2879552-induced antileukemic activity against human CCRF-CEM cells at 4.3 uM in presence of bone-marrow derived stromal cell-conditioned medium; type: functional, cell-based
CCRF-CEM [6] = assay: Potentiation of nelarabine-induced antileukemic activity against human CCRF-CEM cells at 4.3 uM in presence of bone-marrow derived stromal cell-conditioned medium; type: functional, cell-based
CCRF-CEM [7] = assay: Potentiation of panobinostat-induced antileukemic activity against human CCRF-CEM cells at 4.3 uM in presence of bone-marrow derived stromal cell-conditioned medium; type: functional, cell-based
CCRF-CEM [8] = assay: Potentiation of ponatinib-induced antileukemic activity against human CCRF-CEM cells at 4.3 uM in presence of bone-marrow derived stromal cell-conditioned medium; type: functional, cell-based
U-937 [9] = assay: Potentiation of alisertib-induced antileukemic activity against human U-937 cells at 4.3 uM in presence of bone-marrow derived stromal cell-conditioned medium; type: functional, cell-based
U-937 [10] = assay: Potentiation of crenolatinib-induced antileukemic activity against human U-937 cells at 4.3 uM in presence of bone-marrow derived stromal cell-conditioned medium; type: functional, cell-based
U-937 [11] = assay: Potentiation of dasatinib-induced antileukemic activity against human U-937 cells at 4.3 uM in presence of bone-marrow derived stromal cell-conditioned medium; type: functional, cell-based
U-937 [12] = assay: Potentiation of GSK2879552-induced antileukemic activity against human U-937 cells at 4.3 uM in presence of bone-marrow derived stromal cell-conditioned medium; type: functional, cell-based
U-937 [13] = assay: Potentiation of luminespid-induced antileukemic activity against human U-937 cells at 4.3 uM in presence of bone-marrow derived stromal cell-conditioned medium; type: functional, cell-based
U-937 [14] = assay: Potentiation of nelarabine-induced antileukemic activity against human U-937 cells at 4.3 uM in presence of bone-marrow derived stromal cell-conditioned medium; type: functional, cell-based
U-937 [15] = assay: Potentiation of OTX015-induced antileukemic activity against human U-937 cells at 4.3 uM in presence of bone-marrow derived stromal cell-conditioned medium; type: functional, cell-based
U-937 [16] = assay: Potentiation of palbociclib-induced antileukemic activity against human U-937 cells at 4.3 uM in presence of bone-marrow derived stromal cell-conditioned medium; type: functional, cell-based
U-937 [17] = assay: Potentiation of vermurafenib-induced antileukemic activity against human U-937 cells at 4.3 uM in presence of bone-marrow derived stromal cell-conditioned medium; type: functional, cell-based
U-937 [18] = assay: Potentiation of volasertib-induced antileukemic activity against human U-937 cells at 4.3 uM in presence of bone-marrow derived stromal cell-conditioned medium; type: functional, cell-based
MOLM-14 [19] = assay: Potentiation of AC-4-130-induced antileukemic activity against human MOLM-14 cells at 4.3 uM in presence of bone-marrow derived stromal cell-conditioned medium; type: functional, cell-based
MOLM-14 [20] = assay: Potentiation of AT9283-induced antileukemic activity against human MOLM-14 cells at 4.3 uM in presence of bone-marrow derived stromal cell-conditioned medium; type: functional, cell-based
MOLM-14 [21] = assay: Potentiation of crenolatinib-induced antileukemic activity against human MOLM-14 cells at 4.3 uM in presence of bone-marrow derived stromal cell-conditioned medium; type: functional, cell-based
MOLM-14 [22] = assay: Potentiation of cyclopamine-induced antileukemic activity against human MOLM-14 cells at 4.3 uM in presence of bone-marrow derived stromal cell-conditioned medium; type: functional, cell-based
MOLM-14 [23] = assay: Potentiation of metformin -induced antileukemic activity against human MOLM-14 cells at 4.3 uM in presence of bone-marrow derived stromal cell-conditioned medium; type: functional, cell-based
MOLM-14 [24] = assay: Potentiation of MK2206-induced antileukemic activity against human MOLM-14 cells at 4.3 uM in presence of bone-marrow derived stromal cell-conditioned medium; type: functional, cell-based
MOLM-14 [25] = assay: Potentiation of nelarabine-induced antileukemic activity against human MOLM-14 cells at 4.3 uM in presence of bone-marrow derived stromal cell-conditioned medium; type: functional, cell-based
MOLM-14 [26] = assay: Potentiation of tretinoin-induced antileukemic activity against human MOLM-14 cells at 4.3 uM in presence of bone-marrow derived stromal cell-conditioned medium; type: functional, cell-based

Chain of Chromatin remodeling regulator CECR2 (Homo sapiens) (Q9BXF3 whole entry, looked up, the tested form may be a part): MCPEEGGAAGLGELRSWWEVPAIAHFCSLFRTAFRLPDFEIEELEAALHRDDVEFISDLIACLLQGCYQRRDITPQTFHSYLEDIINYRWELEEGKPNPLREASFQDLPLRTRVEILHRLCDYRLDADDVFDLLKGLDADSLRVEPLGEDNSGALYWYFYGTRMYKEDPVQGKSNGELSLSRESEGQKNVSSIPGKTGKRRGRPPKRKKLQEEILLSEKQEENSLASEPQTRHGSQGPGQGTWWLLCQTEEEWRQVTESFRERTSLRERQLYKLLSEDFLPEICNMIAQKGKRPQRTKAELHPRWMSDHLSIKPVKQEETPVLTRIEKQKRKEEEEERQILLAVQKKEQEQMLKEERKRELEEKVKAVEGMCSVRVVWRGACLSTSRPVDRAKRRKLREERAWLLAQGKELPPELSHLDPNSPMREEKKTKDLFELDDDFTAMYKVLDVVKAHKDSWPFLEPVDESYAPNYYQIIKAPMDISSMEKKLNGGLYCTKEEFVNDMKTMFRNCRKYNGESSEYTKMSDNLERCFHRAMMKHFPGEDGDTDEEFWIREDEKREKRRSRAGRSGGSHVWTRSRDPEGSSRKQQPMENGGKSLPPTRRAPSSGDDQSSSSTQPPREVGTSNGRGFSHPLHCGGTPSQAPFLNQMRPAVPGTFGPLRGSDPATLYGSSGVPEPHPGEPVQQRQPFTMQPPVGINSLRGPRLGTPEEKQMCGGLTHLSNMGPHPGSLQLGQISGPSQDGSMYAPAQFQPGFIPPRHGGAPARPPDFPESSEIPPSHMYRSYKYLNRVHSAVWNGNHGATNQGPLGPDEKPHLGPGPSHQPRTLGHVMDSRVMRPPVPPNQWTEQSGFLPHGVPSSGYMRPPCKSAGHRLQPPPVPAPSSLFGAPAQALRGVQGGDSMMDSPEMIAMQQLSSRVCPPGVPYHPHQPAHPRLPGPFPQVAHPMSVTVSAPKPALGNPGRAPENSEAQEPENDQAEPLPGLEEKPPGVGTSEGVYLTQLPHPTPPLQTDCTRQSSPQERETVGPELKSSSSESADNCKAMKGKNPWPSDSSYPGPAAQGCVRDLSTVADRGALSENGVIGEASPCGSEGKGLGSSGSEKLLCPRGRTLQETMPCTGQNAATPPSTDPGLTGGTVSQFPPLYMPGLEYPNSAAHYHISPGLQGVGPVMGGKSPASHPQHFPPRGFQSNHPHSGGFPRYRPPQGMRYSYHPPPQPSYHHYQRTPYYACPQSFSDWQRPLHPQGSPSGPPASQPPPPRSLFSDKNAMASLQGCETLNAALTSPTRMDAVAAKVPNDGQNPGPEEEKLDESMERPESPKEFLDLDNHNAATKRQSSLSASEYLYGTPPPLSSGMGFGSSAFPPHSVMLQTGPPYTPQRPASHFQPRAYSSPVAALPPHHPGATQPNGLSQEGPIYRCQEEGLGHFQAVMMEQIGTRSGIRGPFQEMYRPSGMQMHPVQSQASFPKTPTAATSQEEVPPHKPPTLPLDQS

In the case of `CC(=O)N1CCc2c(sc3nc(SCC(=O)Nc4cccnc4C)n(Cc4ccco4)c(=O)c23)C1`, the Activity [1] was 52%, the Activity [2] was 54% and the Activity (CCRF-CEM [3]) was “inactive”. The Activity (CCRF-CEM [4]) was “inactive”, the Activity (CCRF-CEM [5]) was “inactive” and the Activity (CCRF-CEM [6]) was “inactive”. For the same molecule, the Activity (CCRF-CEM [7]) was “inactive”, the Activity (CCRF-CEM [8]) was “inactive” and the Activity (U-937 [9]) was “inactive”. The Activity (U-937 [10]) was “inactive”, the Activity (U-937 [11]) was “inactive” and the Activity (U-937 [12]) was “inactive”. The Activity (U-937 [13]) was “inactive”, the Activity (U-937 [14]) was “inactive” and the Activity (U-937 [15]) was “inactive”. For the same molecule, the Activity (U-937 [16]) was “inactive”, the Activity (U-937 [17]) was “inactive” and the Activity (U-937 [18]) was “inactive”. For the same molecule, the Activity (MOLM-14 [19]) was “inactive”, the Activity (MOLM-14 [20]) was “inactive” and the Activity (MOLM-14 [21]) was “inactive”. For the same molecule, the Activity (MOLM-14 [22]) was “inactive”, the Activity (MOLM-14 [23]) was “inactive” and the Activity (MOLM-14 [24]) was “inactive”. For the same molecule, the Activity (MOLM-14 [25]) was “inactive” and the Activity (MOLM-14 [26]) was “inactive”.
